# Data reported in BindingDB's records for PubMed 34726055 (Central University of Punjab, 2022).
# Target: Pyruvate kinase PKLR (Homo sapiens) (UniProt P30613)
# Experiment: Inhibition of human erythrocytes pyruvate kinase
# Pyruvate kinase PKLR (Homo sapiens), sequence (P30613 whole entry, looked up): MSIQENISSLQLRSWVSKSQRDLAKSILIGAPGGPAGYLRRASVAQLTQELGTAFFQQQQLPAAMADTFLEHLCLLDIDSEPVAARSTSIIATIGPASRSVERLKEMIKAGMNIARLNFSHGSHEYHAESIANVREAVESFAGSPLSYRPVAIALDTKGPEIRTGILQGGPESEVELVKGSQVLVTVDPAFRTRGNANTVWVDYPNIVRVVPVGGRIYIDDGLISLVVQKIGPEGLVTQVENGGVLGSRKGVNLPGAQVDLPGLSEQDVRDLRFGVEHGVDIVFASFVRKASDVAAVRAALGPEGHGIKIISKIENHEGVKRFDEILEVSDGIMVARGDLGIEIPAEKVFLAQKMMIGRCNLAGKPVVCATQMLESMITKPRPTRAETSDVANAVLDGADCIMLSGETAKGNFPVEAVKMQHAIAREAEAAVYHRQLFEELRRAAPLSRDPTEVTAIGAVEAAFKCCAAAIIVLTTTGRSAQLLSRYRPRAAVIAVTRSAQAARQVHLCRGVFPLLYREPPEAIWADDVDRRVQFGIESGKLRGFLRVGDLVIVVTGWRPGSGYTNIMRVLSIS
smiles,measurement,value
O=C(O)c1ccc(SC2=NS(=O)(=O)c3ccccc32)cc1,IC50,8 µM
